Test results as given in patent US20120309796A1, “BENZOCYCLOHEPTENE ACETIC ACIDS” (priority 2011, published 2012).

Target: T1, human CRTH2 (Homo sapiens, UniProt Q9Y5Y4)
T1 sequence (Q9Y5Y4 1-395): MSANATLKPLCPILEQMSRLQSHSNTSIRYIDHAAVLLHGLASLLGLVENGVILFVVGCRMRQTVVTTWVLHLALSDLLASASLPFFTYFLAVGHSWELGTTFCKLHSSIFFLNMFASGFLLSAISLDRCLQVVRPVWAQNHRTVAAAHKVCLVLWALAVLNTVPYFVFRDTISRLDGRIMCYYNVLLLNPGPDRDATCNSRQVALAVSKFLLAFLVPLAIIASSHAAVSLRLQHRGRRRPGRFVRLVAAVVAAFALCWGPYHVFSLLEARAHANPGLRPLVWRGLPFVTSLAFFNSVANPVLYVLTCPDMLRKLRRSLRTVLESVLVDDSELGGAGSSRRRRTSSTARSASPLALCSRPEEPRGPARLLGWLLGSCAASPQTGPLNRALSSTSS
Experiment: Human CRTH2 Receptor Binding Assay (whole cell, [3H]ramatroban competition)
Set-up: two mammalian expression vectors that harbored human CRTH2 and G-alpha16 cDNAs; expressed in transfected cells
Settings: CHO-K1 cells expressing human CRTH2 and G-alpha16; 20 nM [3H]ramatroban; 1 hour, room temperature
In short: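 CHO-K1 cells stably co-expressing human CRTH2 and G-alpha16 (1.5×10^5/reaction) incubated 1 h at room temperature with 20 nM [3H]ramatroban in PBS, 10 mM MgCl2, 0.06% BSA. Non-specific binding defined with 10 μM 15(R)-15-methyl PGD2; IC50 from 7-point inhibition of specific binding, 4-parameter logistic fit.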

| Compound | IC50 |
| --- | --- |
| O=C(O)COc1cccc2c1CCCCC2NS(=O)(=O)c1cc(C(F)(F)F)cc(C(F)(F)F)c1 (single isomer, unassigned) [Example 46, [5-(3,5-Bis-trifluoromethyl-benzenesulfonylamino)-6,7,8,9-tetrahydro-5H-benzocyclohepten-1-yloxy]-acetic acid] | 0.0245 µM |
| O=C(O)COc1cccc2c1CCCCC2NS(=O)(=O)c1cc(C(F)(F)F)cc(C(F)(F)F)c1 (centres unmarked) [Example 1, [5-(3,5-Bis-trifluoromethyl-benzenesulfonylamino)-6,7,8,9-tetrahydro-5H-benzocyclohepten-1-yloxy]-acetic acid] | 0.0089 µM |
